Patent publication US11759412B2, “Personal care compositions with glutathione precursor comprising 4-substituted resorcinols and amino acids” (Conopco, Inc., priority 2016, dated 2023)

Tests used:
Assay type in all cases: cell-based
Human Keratinocytes [1] = assay: Reactive Oxygen Species (ROS) Assay (CellROX green, menadione); settings: for synergistic decrease in ROS production, combination with GAP amino acids vs either alone: resorcinol/test reagent combined with GAP
Procedure: Human Keratinocytes (Promocell, Heidelberg, Germany) were maintained in EpiLife® keratinocyte medium containing 60 uM calcium chloride and 1% Human Keratinocyte Growth Supplement (HKGS) in a humidified incubator with an atmosphere containing 5% CO2 at 37° C. The medium was refreshed every other day. Subsequently, cells were trypsinized at 90% confluency and seeded at a density of 1-2×10^4 per well into 96-well plates with black wall and clear bottom. On the second day after seeding, cell medium was replaced with Hank's Balanced Salt Solution (HBSS) with or without menadione (10-25 uM), GAP (typically at 49 uM pyroglutamic acid, 60 uM cystine, 194 uM glycine), GAP vehicle (0.2 mM NaOH, pH 7.5), above-described additional test reagents, or combinations of GAP with additional test reagents or L-cystine esters alone, and incubated for additional 18 hours. For ROS detection, CellROX green (Life Tech, Thermo Fisher Scientific, Rockford, USA) reagent was added into each well to a final concentration of 15-25 uM and incubated for additional 2-4 hours at 37° C. in a humidified incubator. The ROS fluorescence was detected using a Tecan microplate reader (Excitation/Emission=490/525). Relative ROS production was calculated with normalization based on the vehicle control treatment which was set to 100%. Where indicated, percent protection was calculated as a comparison to menadione alone treatment, using the measured relative fluorescent units in the following equation: […]
ROS levels were evaluated together with cell viability because it is possible to get a false negative for ROS if treatment is so toxic, that at the time of assay, cells are dead (and there are no longer any detectable ROS). Decrease in ROS levels is meaningful if cells are still viable.

[2] = target: T1, tyrosinase in Human primary melanocytes (Homo sapiens, UniProt P14679); assay: Tyrosinase Activity Assay (in situ, melanocyte lysate, DOPA/MBTH); settings: Table 4, GAP where present: glutamine 32 uM, cystine 40 uM, glycine 129 uM, 72 hours
T1 construct: host or cells: Human primary melanocytes
T1 sequence (P14679 19-529): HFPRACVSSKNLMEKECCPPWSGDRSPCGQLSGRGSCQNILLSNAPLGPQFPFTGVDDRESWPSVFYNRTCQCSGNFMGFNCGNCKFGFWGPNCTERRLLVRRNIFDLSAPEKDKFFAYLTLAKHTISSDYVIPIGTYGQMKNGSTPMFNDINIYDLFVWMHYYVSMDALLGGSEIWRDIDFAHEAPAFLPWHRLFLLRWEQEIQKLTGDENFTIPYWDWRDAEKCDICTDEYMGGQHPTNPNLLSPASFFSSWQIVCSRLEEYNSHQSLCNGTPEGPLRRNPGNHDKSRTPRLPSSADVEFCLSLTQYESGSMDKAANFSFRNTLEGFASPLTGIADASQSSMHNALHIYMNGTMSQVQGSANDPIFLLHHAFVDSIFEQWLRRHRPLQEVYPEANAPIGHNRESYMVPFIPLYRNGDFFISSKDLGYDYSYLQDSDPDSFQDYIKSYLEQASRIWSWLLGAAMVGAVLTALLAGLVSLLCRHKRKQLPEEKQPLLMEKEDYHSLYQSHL
Procedure: Human primary melanocytes (Cascade Biologics, now ThermoFisher Scientific) were grown in melanocytes growth medium (MGM) with human melanocyte growth supplement (both media components from ThermoFisher Scientific). Melanocytes were seeded at 1×10^4 cells/well in a 96 wells plate and cultures left undisturbed for 24 hrs in a 5% CO2 humidified incubator at 37° C. At 24 hrs post-seeding, cells were treated with GAP amino acids (consisting of glutamine (32 uM), cystine (40 uM), glycine (129 uM)) alone or in combination with test reagents described above, and left undisturbed for another 72 hours. Subsequently, cell viability was assessed and the cells were then lysed and progressed for determination of in situ tyrosinase activity. Cultures were rinsed twice with 1× phosphate-buffered saline and lysed with 40 uL of 0.5% TritonX 100 for 1 hour on an ice bed. In situ tyrosinase activity was visualized by addition of 60 μl of 50 mM potassium phosphate buffer (pH 6.8) containing 2 mM DOPA (3,4 dihydroxy phenylalanine) and 4 mM MBTH reagent (3-Methyl-2-Benzothiazolinone hydrazone hydrochloride) for 1 hour at 37° C. The reaction was stopped by the addition of 100 uL of ice-cold 10% tricholoracetic acid and then centrifuged at approximately 300 g for 10 minutes at 4° C. The soluble supernatant was separated from the pellet and the optical density read in a TECAN plate-reader (540 nm filter). The spectrophotometric optical density at 540 nm for untreated cells (no active) is considered as 100% tyrosinase activity. Tyrosinase activity is expressed after correction for cell numbers (activity/viability) and represented as % control.

Human Keratinocytes [3] = assay: Cell Viability Assay (CCK-8, menadione); settings: for Cell viability (% of vehicle of control): Table 2H
Procedure: Human Keratinocytes (Promocell, Heidelberg, Germany) were maintained in EpiLife® keratinocyte medium containing 60 uM calcium chloride and 1% Human Keratinocyte Growth Supplement (HKGS). The medium was refreshed every other day. Subsequently, cells were trypsinized at 90% confluency and seeded at a density of 2×10^4 per well into 96-well transparent tissue culture plates. On the second day after seeding, cell medium was replaced with treatments as described above in ROS assay section. After 18 hours, […] (CCK-8) reagent (Dojindo, Kumamoto, Japan) was diluted 1:10 in HBSS and incubated with cells for 4 h at 37° C. in a humidified incubator. Optical absorption at 450 nm was measured using a Tecan Safire2 plate reader. Relative viability was calculated with normalization based on the vehicle control treatment, which was set to 100%.
Where indicated, percent protection was calculated as a comparison to menadione alone treatment, using the measured relative absorbance units in the following equation: […]

Aged Human Keratinocytes = assay: Glutathione Assay (total glutathione, GSH-GSSG Glo, menadione challenge); settings: for synergistic increase in GSH synthesis, combination with GAP amino acids vs either alone: resorcinol/test reagent combined with GAP, + menadione
Procedure: Aged Human Keratinocytes (Cascade Biologics, now ThermoFisher Scientific, Waltham, Mass.) were maintained in Epi Life® medium containing 60 uM calcium chloride and 1% Human Keratinocyte Growth Supplement (both media components from ThermoFisher Scientific) in a humidified incubator with an atmosphere containing 5% CO2 at 37° C. The medium was refreshed every 2-3 days. Subsequently, cells were trypsinized at 90% confluency and seeded at a density of 1×10^4 per well into 96-well plates with white wall and clear bottom. One or two days after seeding, cell medium was replaced with Hank's Balanced Salt Solution (HBSS), and keratinocytes were pre-treated with GAP (or 0.12-0.240 mM sodium hydroxide vehicle control, pH 7.5) alone or in combination with additional test reagents described above or L-cystine esters alone for 1-2 hours. The concentration of all amino acids constituting the GAP mixture used in this assay are designated in the data tables, and fully described in the abbreviations list below.
After one or two hours of pre-treatment with GAP or additional test reagents, alone or in combination, keratinocytes were then challenged with 25 uM menadione (Sigma-Aldrich), a known inducer of oxidative stress. After 18-20 hours, cells were harvested and analyzed for total glutathione levels using a commercially available kit (GSH-GSSG GLo Assay, Promega), a luminescence-based system for the detection and quantification of total glutathione in cultured cells. In summary, after cell treatment, the media was removed and replaced with a cell lysis reagent for 5 minutes at 20-25° C.; note, all remaining steps were also conducted at 20-25° C. Next, a luciferase generation reagent was added to each well and incubated for 30 minutes. Following this step, a luciferin detection reagent was added to each well and plates were incubated for 15 minutes. Finally, plates were then read for luminescence in a FlexStation 3 plate reader (Molecular Devices). Total glutathione levels were calculated after interpolation of glutathione concentrations from a standard curve. Experimental conditions were typically conducted in at least triplicate determinations. Statistical significance was calculated using 1-way ANOVA. Percent protection was calculated by using the calculated glutathione levels from each experiment in the following equation: […]

[4] = Table 1A, HR 20 uM where present, + menadione 25 uM
[5] = Table 2F, PER 20 uM where present, + menadione
[6] = Table 2G, PER 10 uM + menadione
[7] = Table 2G, PER 20 uM + menadione
[8] = Table 2G, PER 50 uM + menadione

Question: `CCc1ccc(O)cc1O` [ER, 4-ethylresorcinol] was tested. Which “Mean ROS production (% of vehicle control)” value (Human Keratinocytes [1]; Table 2H, ER 10 uM + menadione) did it give?
Answer: 287.5%

Question: And the “Mean ROS production (% of vehicle control)” value (Human Keratinocytes [1]; Table 2H, ER 20 uM + menadione)?
Answer: 308.3%

Question: And the “synergistic decrease in ROS production, combination with GAP amino acids vs either alone” value (Human Keratinocytes [1]; + menadione)?
Answer: not observed

Question: What about the inhibition at 5 µM ([2]; resorcinol (HR or ER) 5 uM) of the same molecule?
Answer: 67%

Question: What about the inhibition at 10 µM ([2]; resorcinol (HR or ER) 10 uM) of the same molecule?
Answer: 68%

Question: What about the “Cell viability (% of vehicle of control)” value (Human Keratinocytes [3]; ER 10 uM + menadione) of the same molecule?
Answer: 36.6%

Question: And the “Cell viability (% of vehicle of control)” value (Human Keratinocytes [3]; ER 20 uM + menadione)?
Answer: 39.8%

Question: And the “% Protection (improvement vs. vehicle control + menadione)” value (Aged Human Keratinocytes; Table 2C, ER 40 uM + menadione)?
Answer: 0%

Question: And the “Glutathione Synthesis, Mean (uM glutathione)” value (“Glutathione Synthesis, Mean” below) (Aged Human Keratinocytes; Table 2C, ER 40 uM + menadione)?
Answer: 0.36 µM

Question: What about the “% Protection (improvement vs. vehicle control + menadione)” value (Aged Human Keratinocytes; Table 2C, ER 50 uM + menadione) of the same molecule?
Answer: −4%

Question: And the “Glutathione Synthesis, Mean” value (Aged Human Keratinocytes; Table 2C, ER 50 uM + menadione)?
Answer: 0.25 µM

Question: What about the “% Protection (improvement vs. vehicle control + menadione)” value (Aged Human Keratinocytes; Table 2C, ER 60 uM + menadione) of the same molecule?
Answer: −1%

Question: What about the “Glutathione Synthesis, Mean” value (Aged Human Keratinocytes; Table 2C, ER 60 uM + menadione) of the same molecule?
Answer: 0.34 µM

Question: What about the “synergistic increase in GSH synthesis, combination with GAP amino acids vs either alone” value (Aged Human Keratinocytes) of the same molecule?
Answer: synergistic increase

Question: With `CCCCCCc1ccc(O)cc1O` [HR, 4-hexylresorcinol] as the molecule, how does the “% protection (improvement vs vehicle control + menadione), ROS” value (Human Keratinocytes [1]; Table 2D, HR 10 uM + menadione) read?
Answer: 69.6^3%

Question: And the “Mean ROS production (% of vehicle control)” value (Human Keratinocytes [1]; Table 2D, HR 10 uM + menadione)?
Answer: 153.4^3%

Question: And the “% protection (improvement vs vehicle control + menadione), ROS” value (Human Keratinocytes [1]; Table 2D, HR 20 uM + menadione)?
Answer: 76.49^3%

Question: What about the “Mean ROS production (% of vehicle control)” value (Human Keratinocytes [1]; Table 2D, HR 20 uM + menadione) of the same molecule?
Answer: 118.7^3%

Question: And the “synergistic decrease in ROS production, combination with GAP amino acids vs either alone” value (Human Keratinocytes [1]; + menadione)?
Answer: synergistic decrease

Question: And the “Tyrosinase activity inhibition, Mean of % Inhibition” value ([2]; resorcinol (HR or ER) 5 uM)?
Answer: 63^1%

Question: What about the “Tyrosinase activity inhibition, Mean of % Inhibition” value ([2]; resorcinol (HR or ER) 10 uM) of the same molecule?
Answer: 71^1%

Question: And the “% Protection (improvement vs vehicle control + menadione), cell viability” value (Human Keratinocytes [3]; Table 2D, HR 10 uM + menadione)?
Answer: 18.85^3%

Question: What about the “Cell viability (% of control)” value (Human Keratinocytes [3]; Table 2D, HR 10 uM + menadione) of the same molecule?
Answer: 65.1^3%

Question: What about the “% Protection (improvement vs vehicle control + menadione), cell viability” value (Human Keratinocytes [3]; Table 2D, HR 20 uM + menadione) of the same molecule?
Answer: −79.00%

Question: What about the “Cell viability (% of control)” value (Human Keratinocytes [3]; Table 2D, HR 20 uM + menadione) of the same molecule?
Answer: 11.0%

Question: And the “% Protection (improvement vs. vehicle control + menadione)” value (Aged Human Keratinocytes; [4])?
Answer: 22^1%

Question: What about the “Glutathione Synthesis, Mean” value (Aged Human Keratinocytes; [4]) of the same molecule?
Answer: 0.46^1 uM

Question: And the “% Protection (improvement vs. vehicle control + menadione)” value (Aged Human Keratinocytes; Table 2A, HR 10 uM + menadione)?
Answer: 4%

Question: What about the “Glutathione Synthesis, Mean” value (Aged Human Keratinocytes; Table 2A, HR 10 uM + menadione) of the same molecule?
Answer: 0.24 µM

Question: And the “% Protection (improvement vs. vehicle control + menadione)” value (Aged Human Keratinocytes; Table 2A, HR 20 uM + menadione)?
Answer: 5%

Question: And the “Glutathione Synthesis, Mean” value (Aged Human Keratinocytes; Table 2A, HR 20 uM + menadione)?
Answer: 0.28 µM

Question: What about the “% Protection (improvement vs. vehicle control + menadione)” value (Aged Human Keratinocytes; Table 2A, HR 40 uM + menadione) of the same molecule?
Answer: 1%

Question: What about the “Glutathione Synthesis, Mean” value (Aged Human Keratinocytes; Table 2A, HR 40 uM + menadione) of the same molecule?
Answer: 0.19 µM

Question: What about the “% Protection (improvement vs. vehicle control + menadione)” value (Aged Human Keratinocytes; Table 2A, HR 60 uM + menadione) of the same molecule?
Answer: 0%

Question: And the “Glutathione Synthesis, Mean” value (Aged Human Keratinocytes; Table 2A, HR 60 uM + menadione)?
Answer: 0.14 µM

Question: What about the “synergistic increase in GSH synthesis, combination with GAP amino acids vs either alone” value (Aged Human Keratinocytes) of the same molecule?
Answer: synergistic increase

Question: What does the source list for `CC(c1ccccc1)c1ccc(O)cc1O` (stereo not drawn) [PER, 4-(1-phenylethyl)resorcinol]?
Answer: % protection (improvement vs vehicle control + menadione), ROS (Human Keratinocytes [1]; [5]): −6.74%; Mean ROS production (% of vehicle control) (Human Keratinocytes [1]; [5]): 321.5%; synergistic decrease in ROS production, combination with GAP amino acids vs either alone (Human Keratinocytes [1]; + menadione): synergistic decrease; % Protection (improvement vs vehicle control + menadione), cell viability (Human Keratinocytes [3]; [5]): 1.09%; Cell viability (% of control) (Human Keratinocytes [3]; [5]): 62.3%; % Protection (improvement vs vehicle control + menadione) (Aged Human Keratinocytes; [6]): −2%; Glutathione Synthesis, Mean (uM glutathione) (Aged Human Keratinocytes; [6]): 0.12 µM; % Protection (improvement vs vehicle control + menadione) (Aged Human Keratinocytes; [7]): 3%; Glutathione Synthesis, Mean (uM glutathione) (Aged Human Keratinocytes; [7]): 0.25 µM; % Protection (improvement vs vehicle control + menadione) (Aged Human Keratinocytes; [8]): 12%; Glutathione Synthesis, Mean (uM glutathione) (Aged Human Keratinocytes; [8]): 0.50 µM; synergistic increase in GSH synthesis, combination with GAP amino acids vs either alone (Aged Human Keratinocytes): not observed
